Laboratory results taken from PubChem BioAssay AID504822 (The Scripps Research Institute Molecular Screening Center, 2011).
Activity calls are given as the source filed them.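 Rule for the calls: active = EC50 for procaspase-7 activation at or below 10 µM; inactive = EC50 above 10 µM.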

These molecules were tested against Caspase-7 (Homo sapiens) (UniProt P55210) (assay: procaspase-7 activation potency, dual candidates – biochemical, absorbance, PC-7 D3A triple mutant, powder samples, late-stage follow-up (AID 504822)). Conditions: recombinant procaspase-7 D3A, Ac-DEVD-pNA absorbance.
Chain of Caspase-7 (Homo sapiens) (P55210 whole entry D23A/D198A/D206A): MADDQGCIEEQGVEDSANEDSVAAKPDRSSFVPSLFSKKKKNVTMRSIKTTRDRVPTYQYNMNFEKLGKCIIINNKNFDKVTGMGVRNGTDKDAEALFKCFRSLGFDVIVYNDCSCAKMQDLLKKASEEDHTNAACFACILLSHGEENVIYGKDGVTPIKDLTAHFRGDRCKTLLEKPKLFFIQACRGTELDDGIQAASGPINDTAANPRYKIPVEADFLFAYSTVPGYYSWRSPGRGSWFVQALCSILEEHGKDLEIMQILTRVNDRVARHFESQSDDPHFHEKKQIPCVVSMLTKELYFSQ
With `Cc1[nH]nc2c1C(c1c[nH]c3ccccc13)C(C#N)=C(N)O2` (stereo not given) the EC50 was 4.49 µM.
For `O=C(Nc1ccc(Cc2ccncc2)cc1)C1CCC(N2C(=O)C3C4C=CC(C5CC45)C3C2=O)CC1` (stereo not given), the EC50 was > 85.3 µM (inactive).
In the case of `O=C(C1=NN(c2ccccc2)C2C(=O)N(c3ccccc3)C(=O)C12)c1ccccc1` (stereo not given), the EC50 is reported as > 85.3 µM (inactive).
`COc1ccccc1N1C(=O)C2C(C(=O)c3ccccc3)=NN(c3ccccc3)C2C1=O` (stereo not given) was tested, and the EC50 was > 85.3 µM (inactive).
For `COC(=O)C1=NN(c2ccc(Cl)cc2)C2C(=O)N(c3ccccc3OC)C(=O)C12` (stereo not given), the EC50 was > 85.3 µM (inactive).
